From patent publication US10478425B2, “5-phenylazaindole derivative having AMPK-activating activity” (Shionogi & Co., Ltd., priority 2016, dated 2019) come the findings set out here.

Read-outs that look alike come from different tables or passages of the source.

What is called Emax is the size of the effect at its maximum, as opposed to the concentration needed.

This assay concerns the target T1, Human AMPK α2β2γ1 (Homo sapiens, UniProt O43741+P54646).
T1 construct: The full length cDNAs of human AMPK β2 (NM_005399.3) and human AMPK α2 (NM_006252.3); The full length cDNAs of human AMPK β2 (NM_005399.3); the full length cDNA of human AMPK γ1 (NM_002733.3) had been inserted into pET28b(+); 6×His (N); made in house; host or cells: Escherichia coli BL21 CodonPlus (DE3)-RIL
The experiment in a line: Test Example 2: activation of phosphorylated human AMPK α2β2γ1 (mobility-shift kinase assay, FL-Peptide 7). The assay is classed as biochemical. As to conditions: for EC150: compound concentration showing 150% relative to the control (100%), human AMPK α2β2γ1 phosphorylated with CaMKK2; for Emax: maximum rate of increase in activity within the measurement range, control = 100%. How it is done:
The full length cDNAs of human AMPK β2 (NM_005399.3) and human AMPK α2 (NM_006252.3) were inserted into the MCS1 and MCS2 of the pETDuet-1 vector to prepare a human AMPK β2 and human AMPK α2 (6×His tag at the 5′ terminus) expressing plasmid. The plasmid was cotransfected with an expression plasmid, in which the full length cDNA of human AMPK γ1 (NM_002733.3) had been inserted into pET28b(+), into BL21 CodonPlus (DE3)-RIL to obtain an expression strain. The expression strain was cultured in TB medium, followed by induction with 0.5 mM IPTG, and cultured at 25° C. for 3 hours and then harvested. After ultrasonication, supernatant was collected and applied to Histrap FF column (GE) and RESOUECE Q column (GE) to prepare 12.5 mg of purified sample containing three types of subunit from 1.8 L of broth.
An expression vector, in which the full length cDNA of human CAMKK β (NM_172226.1) had been inserted into pGEX-6P-3, was transfected into BL21 Star (DE3). The expression strain was cultured in TB medium, followed by induction with 0.5 mM IPTG, and cultured at 25° C. for 3 hours and then harvested. After ultrasonication, supernatant was collected and applied to GSTrap FF column (GE) to prepare 14 mg of GST-fused CAMKK β from 720 ml of broth.
Thus, phosphorylation treatment was carried out as pretreatment.
Human AMPK α2β2γ1 in an amount to give a conversion rate of approximately 10% by reaction for 2 hours, and CaMKK2 in an amount capable of sufficiently imparting activity to AMPK for one hour were mixed in a buffer solution consisting of a 50 mM HEPES-NaOH buffer solution (pH 7.0), 100 mM NaCl, 5 mM magnesium chloride, 0.1% bovine serum albumin, 0.2 mM sodium orthovanadate(V), 1 mM ethylene glycol-bis(2-aminoethyl ether)-N,N,N′,N′-tetraacetic acid (EGTA), 5 mM disodium β-glycerophosphate, 1 mM dithiothreitol and 0.2 mM ATP, and the resulting liquid was left to stand at 25° C. for 1 to 1.5 hours to sufficiently phosphorylate AMPK.
After that, to the enzyme liquid, which had been subjected to phosphorylation treatment, a compound dissolved in DMSO was added so as to have a 1% DMSO concentration. The resulting liquid was left to stand for 10 minutes.
To the liquid, a substrate solution consisting of a 50 mM HEPES-NaOH buffer solution (pH 7.0), 100 mM NaCl, 10 mM magnesium chloride, 0.1% bovine serum albumin, 0.2 mM sodium orthovanadate(V), 1 mM ethylene glycol-bis(2-aminoethyl ether)-N,N,N′,N′-tetraacetic acid (EGTA), 5 mM disodium β-glycerophosphate, 2 mM dithiothreitol, 0.4 mM ATP and 3 μM FL-Peptide 7 (manufactured by Caliper Life Sciences, Inc.) was added in equal amount (10 μl in total). The resulting liquid was allowed to react at 25° C. for 2 hours, then 10 μl of 20 mM EDTA was added thereto to stop the reaction.
To detect phosphorylated fluorescent substrates, the reaction mixture was applied to a measuring device, LabChip EZ Reader II manufactured by Caliper Life Science, Inc., for detecting fluorescence by using differences in mobility due to differences in charge. The setting conditions for the device were pressure, −1.5 PSI; upstream voltage, −2250 V; downstream voltage, −400 V; post sample buffer sip time, 40 seconds; final delay, 120 seconds; and peak order, Product First.
A conversion rate was calculated from the peak heights of the obtained substrate and product. The conversion rate when not containing a compound was used as a control, and a concentration dependent curve was made by plotting the rate of increase in activity to the control at each concentration of a compound.

T1 sequence (P54646 whole entry): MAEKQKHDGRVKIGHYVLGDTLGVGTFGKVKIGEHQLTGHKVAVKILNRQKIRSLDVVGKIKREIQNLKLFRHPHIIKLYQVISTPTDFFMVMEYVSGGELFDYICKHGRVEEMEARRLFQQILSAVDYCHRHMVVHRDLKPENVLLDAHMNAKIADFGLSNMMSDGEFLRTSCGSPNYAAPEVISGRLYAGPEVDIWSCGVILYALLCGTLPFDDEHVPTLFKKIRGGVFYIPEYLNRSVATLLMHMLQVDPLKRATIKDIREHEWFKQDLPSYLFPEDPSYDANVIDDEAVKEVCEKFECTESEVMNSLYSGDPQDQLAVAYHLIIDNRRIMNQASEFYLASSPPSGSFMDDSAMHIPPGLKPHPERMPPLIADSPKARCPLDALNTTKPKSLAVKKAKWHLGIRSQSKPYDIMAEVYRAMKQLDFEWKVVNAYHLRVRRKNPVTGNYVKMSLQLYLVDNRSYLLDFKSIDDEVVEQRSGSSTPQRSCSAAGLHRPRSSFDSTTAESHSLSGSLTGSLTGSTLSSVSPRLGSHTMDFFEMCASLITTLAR
T1 sequence (O43741 whole entry): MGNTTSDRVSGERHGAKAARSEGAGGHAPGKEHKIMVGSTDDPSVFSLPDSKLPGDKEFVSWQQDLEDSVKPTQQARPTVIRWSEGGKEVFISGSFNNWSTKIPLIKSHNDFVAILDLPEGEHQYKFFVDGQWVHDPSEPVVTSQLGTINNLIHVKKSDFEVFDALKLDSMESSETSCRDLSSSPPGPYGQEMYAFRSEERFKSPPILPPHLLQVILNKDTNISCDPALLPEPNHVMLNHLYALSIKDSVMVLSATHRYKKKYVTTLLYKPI
T1 sequence (P54619 whole entry partner): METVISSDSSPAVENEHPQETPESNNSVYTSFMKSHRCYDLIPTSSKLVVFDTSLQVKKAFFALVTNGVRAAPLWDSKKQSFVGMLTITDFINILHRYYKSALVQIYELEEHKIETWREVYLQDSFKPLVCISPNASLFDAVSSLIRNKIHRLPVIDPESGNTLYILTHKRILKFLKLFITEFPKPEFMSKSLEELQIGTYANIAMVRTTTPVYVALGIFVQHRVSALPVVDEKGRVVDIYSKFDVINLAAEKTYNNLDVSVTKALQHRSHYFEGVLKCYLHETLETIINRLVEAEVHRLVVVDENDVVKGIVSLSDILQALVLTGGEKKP

For the compound `O[C@@H]1CO[C@H]2[C@@H]1OC[C@H]2Oc1cc2nc(-c3ccc(-c4ccc(Oc5ccncc5)cc4)cc3)c(F)cc2[nH]1` [Compound I-2-45], the EC150 is given as 5 nM. In addition, the maximal response (Emax) (read-out: Emax) worked out at 613%.

As to `CNC(=O)c1ccc(-c2ccc(-c3nc4cc(O[C@@H]5CO[C@H](CO)C5)[nH]c4cc3F)cc2)cc1` [Compound I-2-88], the EC150 came out at 0.62 nM. The Emax (read-out: Emax) was 683%.

Turning to `O=C(c1ccc(-c2ccc(-c3nc4cc(O[C@@H]5CO[C@H](CO)C5)[nH]c4cc3F)cc2)cc1)N1CCOCC1` [Compound I-2-81], the EC150 is recorded as 0.78 nM. The Emax (read-out: Emax) was determined as 591%.

With `COCCN(C(C)=O)c1ccc(-c2ccc(-c3nc4cc(O[C@@H]5CO[C@H]6[C@@H]5OC[C@H]6O)[nH]c4cc3F)cc2)cc1` [Compound I-2-37], the EC150 is listed as 4.5 nM. In addition, the maximal response (Emax) (read-out: Emax) turned out to be 415%.

For the compound `CC(C)(O)/C=C/c1ccc(-c2nc3cc(O[C@@H]4CO[C@H]5[C@@H]4OC[C@H]5O)[nH]c3cc2F)cc1` [Compound I-2-14], the EC150 worked out at 9.9 nM. Besides, the Emax (read-out: Emax) is 507%.

For `CP(C)(=O)c1ccc(-c2ccc(-c3nc4cc(O[C@@H]5CO[C@H](CO)C5)[nH]c4cc3F)cc2)cc1` [Compound I-2-65], the EC150 is reported as 0.6 nM. The Emax (read-out: Emax) was 673%.

Regarding `COC(=O)NC1CC=C(c2ccc(-c3nc4cc(O[C@@H]5CO[C@H]6[C@@H]5OC[C@H]6O)[nH]c4cc3F)cc2)CC1` (stereo partly drawn) [Compound I-1-23], the EC150 is given as 2.9 nM and the maximal effect (Emax) turned out to be 436%.

On to `CC(=O)NC1CC=C(c2ccc(-c3nc4cc(O[C@@H]5CO[C@H](CO)C5)[nH]c4cc3F)cc2)CC1` (stereo partly drawn) [Compound I-2-92], for which the EC150 came out at 0.87 nM. Further, under “read-out: Emax”, the maximal response (Emax) is 702%.

Regarding `CS(=O)(=O)N[C@H]1CC[C@H](c2ccc(-c3nc4cc(O[C@@H]5CO[C@H]6[C@@H]5OC[C@H]6O)[nH]c4cc3F)cc2)CC1` [Compound I-1-45], the EC150 is reported as 19 nM. In addition, the Emax (read-out: Emax) amounted to 482%.

As for `CN1CCN(c2ccc(-c3ccc(-c4nc5cc(O[C@@H]6CO[C@H]7[C@@H]6OC[C@H]7O)[nH]c5cc4F)cc3)cc2)C1=O` [Compound I-2-53], the EC150 was found to be 4.2 nM. Besides, the maximum response (Emax) (read-out: Emax) came to 638%.

As to `COCCOCCOc1ccc(-c2ccc(-c3nc4cc(O[C@@H]5CO[C@H]6[C@@H]5OC[C@H]6O)[nH]c4cc3F)cc2)cc1` [Compound I-2-48], the EC150 is reported as 1.1 nM. For the same compound, the maximum response (Emax) (read-out: Emax) came out at 635%.

`CS(=O)(=O)c1ccc(-c2ccc(-c3nc4cc(O[C@@H]5CO[C@H](CO)C5)[nH]c4cc3F)cc2)nc1` [Compound I-2-94]: the EC150 is listed as 0.99 nM. For the same compound, where the note is “read-out: Emax”, the Emax was 652%.

On to `CCP(=O)(CC)c1ccc(-c2ccc(-c3nc4cc(O[C@@H]5CO[C@H](CO)C5)[nH]c4cc3F)cc2)cc1` [Compound I-2-78], for which the EC150 worked out at 1.5 nM. In addition, for the setting “read-out: Emax”, the maximal effect (Emax) turned out to be 573%.

Turning to `COCCN(C)C(=O)c1ccc(-c2ccc(-c3nc4cc(O[C@@H]5CO[C@H](CO)C5)[nH]c4cc3F)cc2)cc1` [Compound I-2-83], the EC150 came to 0.73 nM. Moreover, the maximum response (Emax) (read-out: Emax) is 581%.

For the compound `O[C@@H]1CO[C@H]2[C@@H]1OC[C@H]2Oc1cc2nc(-c3ccc(-c4ccc(OC5CCOC5)cc4)cc3)c(F)cc2[nH]1` (stereo partly drawn) [Compound I-2-69], the EC150 stood at 13 nM. For the setting “read-out: Emax”, the Emax came to 557%.

Regarding `Clc1cc2[nH]c(O[C@H]3CCOC3)cc2nc1-c1ccc(-c2ccc(OC3CCNC3)cc2)cc1` (stereo partly drawn) [Compound I-2-21], the EC150 stood at 13 nM. For the same compound, where the note is “read-out: Emax”, the maximal response (Emax) was found to be 249%.

Take `CONC(=O)c1ccc(-c2ccc(-c3nc4cc(O[C@@H]5CO[C@H](CO)C5)[nH]c4cc3F)cc2)cc1` [Compound I-2-86]: the EC150 worked out at 0.53 nM. Besides, the maximum response (Emax) (read-out: Emax) came to 592%.

In the case of `COCCCN1CCN(c2ccc(-c3nc4cc(O[C@@H]5CO[C@H]6[C@@H]5OC[C@H]6O)[nH]c4cc3F)cc2)CC1` [Compound I-2-58], the EC150 amounted to 56 nM. The maximal response (Emax) (read-out: Emax) was determined as 514%.

With `COCCS(=O)(=O)c1ccc(-c2ccc(-c3nc4cc(O[C@@H]5CO[C@H]6[C@@H]5OC[C@H]6O)[nH]c4cc3F)cc2)cc1` [Compound I-2-95], the EC150 was found to be 2.6 nM. Where the note is “read-out: Emax”, the maximal effect (Emax) came out at 634%.

For the compound `O=C1NCCN1c1ccc(-c2ccc(-c3nc4cc(O[C@@H]5CO[C@H]6[C@@H]5OC[C@H]6O)[nH]c4cc3F)cc2)cc1` [Compound I-1-58], the EC150 is reported as 1.3 nM. In addition, the Emax (read-out: Emax) turned out to be 494%.

With `O[C@@H]1CO[C@H]2[C@@H]1OC[C@H]2Oc1cc2nc(-c3ccc(-c4ccc(OCCC(F)F)cc4)cc3)c(F)cc2[nH]1` [Compound I-2-63], the EC150 amounted to 21 nM. Besides, under “read-out: Emax”, the Emax worked out at 520%.

In the case of `CNS(C)(=O)=Nc1ccc(-c2ccc(-c3nc4cc(O[C@@H]5CO[C@H]6[C@@H]5OC[C@H]6O)[nH]c4cc3F)cc2)cc1` (stereo partly drawn) [Compound I-2-04], the EC150 worked out at 0.67 nM. For the same compound, for the setting “read-out: Emax”, the maximum response (Emax) came out at 638%.

For the compound `CCP(=O)(CC)c1ccc(-c2ccc(-c3nc4cc(O[C@@H]5CO[C@H]6[C@@H]5OC[C@H]6O)[nH]c4cc3F)cc2)cc1` [Compound I-2-72], the EC150 was 2.7 nM. Besides, for the setting “read-out: Emax”, the Emax stood at 591%.

As for `COC(=O)N1CC=C(c2ccc(-c3nc4cc(O[C@@H]5CO[C@H]6[C@@H]5OC[C@H]6O)[nH]c4cc3F)cc2)CC1` [Compound I-1-43], the EC150 was 7 nM. The maximum response (Emax) (read-out: Emax) worked out at 514%.

In the case of `COCC[S+]([O-])c1ccc(-c2ccc(-c3nc4cc(O[C@@H]5CO[C@H]6[C@@H]5OC[C@H]6O)[nH]c4cc3F)cc2)cc1` (stereo partly drawn) [Compound I-2-93], the EC150 is given as 1.1 nM. Also, under “read-out: Emax”, the Emax was 652%.

On to `COCCOc1ccc(-c2ccc(-c3nc4cc(O[C@@H]5CO[C@H]6[C@@H]5OC[C@H]6O)[nH]c4cc3F)cc2)cc1F` [Compound I-2-59], for which the EC150 was found to be 40 nM. Further, the Emax (read-out: Emax) came to 458%.

As to `CNC(=O)c1ccc(-c2ccc(-c3nc4cc(O[C@@H]5CO[C@H]6[C@@H]5OC[C@H]6O)[nH]c4cc3F)cc2)cc1F` [Compound I-1-54], the EC150 amounted to 3.3 nM. For the same compound, under “read-out: Emax”, the Emax came out at 416%.

`OCCCc1ccc(-c2ccc(-c3nc4cc(O[C@@H]5CO[C@H]6[C@@H]5OC[C@H]6O)[nH]c4cc3F)cc2)cc1` [Compound I-2-30]: the EC150 came to 4.3 nM. In addition, the Emax (read-out: Emax) was determined as 605%.

As to `COCCOc1ccc(-c2ccc(-c3nc4cc(O[C@@H]5CO[C@H]6[C@@H]5OC[C@H]6O)[nH]c4cc3F)cc2)cn1` [Compound I-2-40], the EC150 worked out at 16 nM. The Emax (read-out: Emax) was found to be 384%.

As to `COc1cc(-c2ccc(N=S3(=O)CCCC3)cc2)ccc1-c1nc2cc(O[C@@H]3CO[C@H]4[C@@H]3OC[C@H]4O)[nH]c2cc1F` [Compound I-1-20], the EC150 was 8.3 nM. Also, the maximum response (Emax) (read-out: Emax) was found to be 457%.
